Patent publication US7632864B2, “Gabapentin analogues and process thereof” (Hikal Ltd., priority 2005, dated 2009)

Tests used:
[1] = test system: alpha 2 detla sub unit derived from porcine brain tissue; conditions: radio ligand binding, compound without stereochemistry, value from U.S. Pat. No. 6,103,932; cited from earlier work
[2] = water solubility (precipitation of free amino acid at pH 7); type: physicochemical; conditions: compared to the other gabapentin analogues
Protocol: The process for the preparation of the cis and trans isomer of 4-t-butylgabapentin has been achieved, as outlined in Fig. I. 4-t-Butyl-cyclohexanone (I) was treated with ethylcyano acetate and ammonia in methanol to yield ammonium salt of dicyanoimide (2). Hydrolysis of (2) with hot sulfuric acid afforded the diacid (3) which was converted to the anhydride (4). (4) treated with aqueous ammonia to give the mono-amide (5) as a mixture containing approximately equal proportions of stereoisomers. Reaction of (5) with sodium hypobromite solution led to the formation of lactam (6) as a mixture of stereoisomers [proton NMR (7) and its isomer with NCH2 axial in the ratio of 3:2] from which one of the isomer could be crystallized out in pure form from methanol-hexane, mp 176-7° C. and its structure identified as (7) by NMR and single crystal X-ray analysis (Hydrolysis of lactam (6) with hot concentrated HCl gave a mixture of isomers of 4-t-butyl gabapentin hydrochloride (8). Crystallization of (8) from water afforded in pure form, mp 146-147° C., the isomer hemihydrate (9) with aminomethyl group in the anxial position. […]

Row | SMILES | melting point [°C] | IC50 [1] [µM] | water solubility [2]
1 | CC(C)(C)C1CCC(CN)(CC(=O)O)CC1 (stereo not shown) [4-t-butyl gabapentin] | 176 to 180 | 200 | 
2 | CC(C)(C)C1CCC(CN)(CC(=O)O)CC1 (stereo not shown) [Compound 10, 4-t-butylgabapentin] | 182 to 183 |  | much poorer water solubility
